# Assay results taken from US8501786B2, “Hydroxymethyl pyrrolidines as beta 3 adrenergic receptor agonists” (Merck Sharp & Dohme Corp., priority 2009, dated 2013).
# Target: T1, human β3 adrenergic receptor (Homo sapiens, UniProt P13945)
# T1 construct: stably transfected with the cloned β-adrenergic receptor (β1, β2 or β3); expressed in transfected cells; host or cells: Chinese hamster ovary (CHO) cells, stably transfected
# Test: Functional assay: cAMP production (LANCE TR-FRET) in CHO cells stably transfected with cloned β3 adrenergic receptor
# Format: cell-based
# Conditions: Table 2; cAMP production, CHO cells expressing human β3 AR; read-out: Human β3 functional
# Experimental: Functional Assay: cAMP production in response to ligand is measured according to Barton, et al. (1991, Agonist-induced desensitization of D2 dopamine receptors in human Y-79 retinoblastoma cells. Mol. Pharmacal. v3229:650-658) modified as follows, cAMP production is measured using a homogenous time-resolved fluorescence resonance energy transfer immunoassay (LANCE™, Perkin Elmer) according to the manufacture's instructions. Chinese hamster ovary (CHO) cells, stably transfected with the cloned β-adrenergic receptor (β1, β2 or β3) are harvested after 3 days of subculturing. Harvesting of cells is done with Enzyme-free Dissociation Media (Specialty Media). Cells are then counted and resuspended in assay buffer (Hank's Balanced salt solution supplemented with 5 mM HEPES, […]) containing a phosphodiesterase inhibitor (IBMX, 0.6 mM). The reaction is initiated by mixing 6,000 cells in 6 μL with 6 μL Alexa Fluor labeled cAMP antibody (LANCE™ kit) which is then added to an assay well containing 12 μL of compound (diluted in assay buffer to 2× final concentration). The reaction proceeds for 30 min at room temperature and is terminated by the addition of 24 ul detection buffer (LANCE™ kit). The assay plate is then incubated for 1 h at room temperature and time-resolved fluorescence measured on a Perkin Elmer Envision reader or equivalent. The unknown cAMP level is determined by comparing fluorescence levels to a cAMP standard curve.
# The non-selective, full agonist β-adrenergic ligand isoproterenol is used at all three receptors to determine maximal stimulation. The human β3 adrenergic receptor (AR) selective ligand (S)-N-[4-[2-[[2-hydroxy-3-(4-hydroxyphenoxy)propyl]amino]ethyl]-phenyl]-4-iodobenzenesulfonamide is used as a control in all assays. Isoproterenol is titrated at a final concentration in the assay of 10^-10 M to 10-5 and the selective ligand (S)-N-[4-[2-[[2-hydroxy-3-(4-hydroxyphenoxy)propyl]amino]ethyl]phenyl]-4-iodobenzenesulfonamide is titrated at the β3 receptor at concentration of 10^-10 M to 10^-5 M. Unknown ligands are titrated at all 3 β-adrenergic receptor subtypes at a final concentration in the assay of 10^-10 M to 10^-5 M to determine the EC50. The EC50 is defined as the concentration of compound that gives 50% activation of its own maximum. Data are analyzed using Microsoft Excel and Graphpad Prism or an internally developed data analysis software package.
# T1 sequence (P13945 whole entry): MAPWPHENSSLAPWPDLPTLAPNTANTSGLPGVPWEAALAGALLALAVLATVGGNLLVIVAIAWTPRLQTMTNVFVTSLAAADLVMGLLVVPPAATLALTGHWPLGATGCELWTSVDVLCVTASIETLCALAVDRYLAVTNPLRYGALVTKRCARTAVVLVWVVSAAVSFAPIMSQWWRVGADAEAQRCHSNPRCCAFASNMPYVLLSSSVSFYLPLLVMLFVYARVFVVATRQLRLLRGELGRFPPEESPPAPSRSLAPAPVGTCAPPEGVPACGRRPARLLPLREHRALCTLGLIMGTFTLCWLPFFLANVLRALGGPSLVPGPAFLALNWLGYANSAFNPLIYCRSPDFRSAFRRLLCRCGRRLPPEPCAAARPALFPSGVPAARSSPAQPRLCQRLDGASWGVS
row,SMILES,EC50
1,O=C(Cc1n[nH]c(-c2ccccc2)n1)Nc1ccc(CC2CC[C@H]([C@H](O)c3cccnc3)N2)cc1 (stereo partly shown) [Example 4],1 to 10 nM
2,O=C(Nc1ccc(CC2CC[C@H]([C@H](O)c3cccnc3)N2)cc1)c1ccccc1N1CCCC1 (stereo partly shown) [Example 37],101 to 1000 nM
3,O=C(Cc1csc(C(F)(F)F)n1)Nc1ccc(CC2CC[C@H]([C@H](O)c3cccnc3)N2)cc1 (stereo partly shown) [Example 29],11 to 100 nM
4,Cc1nn(C)c(O)c1CC(=O)Nc1ccc(CC2CC[C@H]([C@H](O)c3cccnc3)N2)cc1 (stereo partly shown) [Example 88],101 to 1000 nM
5,O=C(Cc1nnc(-c2ccncc2)[nH]1)Nc1ccc(CC2CC[C@H]([C@H](O)c3cccnc3)N2)cc1 (stereo partly shown) [Example 25],11 to 100 nM
6,O=C(Nc1ccc(CC2CC[C@H]([C@H](O)c3cccnc3)N2)cc1)c1ccccc1-c1ncc[nH]1 (stereo partly shown) [Example 33],11 to 100 nM
7,Cc1nc(CC(=O)Nc2ccc(CC3CC[C@H]([C@H](O)c4cccnc4)N3)cc2)no1 (stereo partly shown) [Example 80],11 to 100 nM
8,O=C(Cc1nnc(-c2ccc(Cl)cc2)[nH]1)Nc1ccc(CC2CC[C@H]([C@H](O)c3cccnc3)N2)cc1 (stereo partly shown) [Example 24],11 to 100 nM
9,Cc1nc2ccccc2c(=O)n1CC(=O)Nc1ccc(CC2CC[C@H]([C@H](O)c3cccnc3)N2)cc1 (stereo partly shown) [Example 11],1 to 10 nM
10,COC(=O)CCC(=O)Nc1ccc(CC2CC[C@H]([C@H](O)c3cccnc3)N2)cc1 (stereo partly shown) [Example 83],101 to 1000 nM
11,O=C(Cc1nnc(-c2cscn2)[nH]1)Nc1ccc(CC2CC[C@H]([C@H](O)c3cccnc3)N2)cc1 (stereo partly shown) [Example 27],1 to 10 nM

# Now from value to compound:
row,EC50,SMILES
1,101 to 1000 nM,Cc1cccc(CC(=O)Nc2ccc(CC3CC[C@H]([C@H](O)c4cccnc4)N3)cc2)n1 (stereo partly shown) [Example 28]
2,1 to 10 nM,Nc1nc(CC(=O)Nc2ccc(CC3CC[C@H]([C@H](O)c4cccnc4)N3)cc2)cs1 (stereo partly shown) [Example 3]
3,11 to 100 nM,NC(=O)c1cnn(CC(=O)Nc2ccc(CC3CC[C@H]([C@H](O)c4cccnc4)N3)cc2)c1 (stereo partly shown) [Example 90]
4,11 to 100 nM,O=C(CN1CCCCC1=O)Nc1ccc(CC2CC[C@H]([C@H](O)c3cccnc3)N2)cc1 (stereo partly shown) [Example 42]
5,1 to 10 nM,"O=C(Cn1cnc2ccccc2c1=O)Nc1ccc(CC2CC[C@H]([C@H](O)c3cccnc3)N2)cc1 (single isomer, unassigned) [Example 12]"
6,1 to 10 nM,Cc1cccc2c(=O)n(CC(=O)Nc3ccc(CC4CC[C@H]([C@H](O)c5cccnc5)N4)cc3)cnc12 (stereo partly shown) [Example 59]
7,1 to 10 nM,O=C(Cn1ncccc1=O)Nc1ccc(CC2CC[C@H]([C@H](O)c3cccnc3)N2)cc1 (stereo partly shown) [Example 52]
8,11 to 100 nM,O=C(CC1NC(=S)N(c2ccccc2)C1=O)Nc1ccc(CC2CC[C@H]([C@H](O)c3cccnc3)N2)cc1 (stereo partly shown) [Example 72]
9,11 to 100 nM,O=C(Cn1nc2ccccc2n1)Nc1ccc(CC2CC[C@H]([C@H](O)c3cccnc3)N2)cc1 (stereo partly shown) [Example 7]
10,11 to 100 nM,NC(=O)c1ccn(CC(=O)Nc2ccc(CC3CC[C@H]([C@H](O)c4cccnc4)N3)cc2)n1 (stereo partly shown) [Example 89]
11,1 to 10 nM,O=C(CN1CCSC1=O)Nc1ccc(CC2CC[C@H]([C@H](O)c3cccnc3)N2)cc1 (stereo partly shown) [Example 45]

# Same assay, conditions: Table 3; cAMP production, CHO cells expressing human β3 AR; read-out: Human β3 functional
row,SMILES,EC50
1,"CC(C(=O)Nc1ccc(CC2CC[C@H]([C@H](O)c3cccnc3)N2)cc1)n1cnc2ccccc2c1=O (single isomer, unassigned) [Example 218]",1 to 10 nM
2,"CC(C(=O)Nc1ccc(CC2CC[C@H]([C@H](O)c3cccnc3)N2)cc1)n1nncc1C(=O)O (single isomer, unassigned) [Example 207]",11 to 100 nM
3,"CCC(C(=O)Nc1ccc(CC2CC[C@H]([C@H](O)c3cccnc3)N2)cc1)c1cscn1 (single isomer, unassigned) [Example 205]",11 to 100 nM
4,"CC(C(=O)Nc1ccc(CC2CC[C@H]([C@H](O)c3cccnc3)N2)cc1)c1csc(C(F)(F)F)n1 (single isomer, unassigned) [Example 111]",11 to 100 nM
5,"CC(C(=O)Nc1ccc(CC2CC[C@H]([C@H](O)c3cccnc3)N2)cc1)n1cc(C(N)=O)cn1 (single isomer, unassigned) [Example 219]",1 to 10 nM
6,"CC(C(=O)Nc1ccc(CC2CC[C@H]([C@H](O)c3cccnc3)N2)cc1)n1cnnn1 (single isomer, unassigned) [Example 183]",1 to 10 nM
7,"COC(=O)c1cnnn1C(C)C(=O)Nc1ccc(CC2CC[C@H]([C@H](O)c3cccnc3)N2)cc1 (single isomer, unassigned) [Example 208]",1 to 10 nM
8,"CC(C(=O)Nc1ccc(CC2CC[C@H]([C@H](O)c3cccnc3)N2)cc1)n1cc(C(N)=O)nn1 (single isomer, unassigned) [Example 201]",1 to 10 nM
9,"CCCC(C(=O)Nc1ccc(CC2CC[C@H]([C@H](O)c3cccnc3)N2)cc1)c1cnc(N)s1 (single isomer, unassigned) [Example 109]",1 to 10 nM

# Second part, the compound after the results:
row,EC50,SMILES
1,11 to 100 nM,"Nc1nc2c(s1)CCC2C(=O)Nc1ccc(CC2CC[C@H]([C@H](O)c3cccnc3)N2)cc1 (single isomer, unassigned) [Example 114]"
2,1 to 10 nM,"CC(C(=O)Nc1ccc(CC2CC[C@H]([C@H](O)c3cccnc3)N2)cc1)c1cnccn1 (single isomer, unassigned) [Example 144]"
3,101 to 1000 nM,"CC(F)(C(=O)Nc1ccc(CC2CC[C@H]([C@H](O)c3cccnc3)N2)cc1)c1ccccn1 (single isomer, unassigned) [Example 147]"
4,1 to 10 nM,"CC(C(=O)Nc1ccc(CC2CC[C@H]([C@H](O)c3cccnc3)N2)cc1)n1ccc(C(N)=O)n1 (single isomer, unassigned) [Example 202]"
5,< 1 nM,"O=C(Nc1ccc(CC2CC[C@H]([C@H](O)c3cccnc3)N2)cc1)C1CCc2sc(Br)nc21 (single isomer, unassigned) [Example 158]"
6,1 to 10 nM,"CC(C(=O)Nc1ccc(CC2CC[C@H]([C@H](O)c3cccnc3)N2)cc1)n1ncccc1=O (single isomer, unassigned) [Example 162]"
7,11 to 100 nM,"Cc1nnc2n1CCC2C(=O)Nc1ccc(CC2CC[C@H]([C@H](O)c3cccnc3)N2)cc1 (single isomer, unassigned) [Example 171]"
8,11 to 100 nM,"Cc1[nH]nc2c1CCC2C(=O)Nc1ccc(CC2CC[C@H]([C@H](O)c3cccnc3)N2)cc1 (single isomer, unassigned) [Example 155]"
9,1 to 10 nM,"O=C(Nc1ccc(CC2CC[C@H]([C@H](O)c3cccnc3)N2)cc1)C1CCc2nccc(=O)n21 (single isomer, unassigned) [Example 161]"
10,1 to 10 nM,"CC(C(=O)Nc1ccc(CC2CC[C@H]([C@H](O)c3cccnc3)N2)cc1)n1ccnn1 (single isomer, unassigned) [Example 148]"
11,11 to 100 nM,"O=C(Nc1ccc(CC2CC[C@H]([C@H](O)c3cccnc3)N2)cc1)C1CCc2sc(CO)nc21 (single isomer, unassigned) [Example 189]"
12,11 to 100 nM,"CCc1nc2c(s1)CCC2C(=O)Nc1ccc(CC2CC[C@H]([C@H](O)c3cccnc3)N2)cc1 (single isomer, unassigned) [Example 120]"
13,1 to 10 nM,"Cc1cnnn1C(C)C(=O)Nc1ccc(CC2CC[C@H]([C@H](O)c3cccnc3)N2)cc1 (single isomer, unassigned) [Example 213]"
14,11 to 100 nM,"O=C(Nc1ccc(CC2CC[C@H]([C@H](O)c3cccnc3)N2)cc1)[C@@H]1CCc2ncnn21 (single isomer, unassigned) [Example 194]"
15,11 to 100 nM,"CC(C(=O)Nc1ccc(CC2CC[C@H]([C@H](O)c3cccnc3)N2)cc1)c1cscn1 (single isomer, unassigned) [Example 196]"

# Same assay, conditions: Table 4; cAMP production, CHO cells expressing human β3 AR; read-out: Human β3 functional
row,EC50,SMILES
1,101 to 1000 nM,N#Cc1cccc(S(=O)(=O)Nc2ccc(CC3CC[C@H]([C@H](O)c4cccnc4)N3)cc2)c1 (stereo partly shown) [Example 236]

# Same assay, conditions: Table 6; human β3 functional activity given as ranges; read-out: Human β3 functional
row,EC50,SMILES
1,< 1 nM,CC(NC(=O)c1cccc(F)c1F)C(=O)Nc1ccc(C[C@@H]2CC[C@H]([C@H](O)c3cccnc3)N2)cc1 (stereo partly shown) [Example 255]
2,1 to 10 nM,CC(NC(=O)c1ccc(F)cc1)C(=O)Nc1ccc(C[C@@H]2CC[C@H]([C@H](O)c3cccnc3)N2)cc1 (stereo partly shown) [Example 259]
3,101 to 1000 nM,CC(C(=O)Nc1ccc(C[C@@H]2CC[C@H]([C@H](O)c3cccnc3)N2)cc1)N(C)C(=O)c1ccccn1 (stereo partly shown) [Example 247]
4,1 to 10 nM,CC(NC(=O)c1nc[nH]n1)C(=O)Nc1ccc(C[C@@H]2CC[C@H]([C@H](O)c3cccnc3)N2)cc1 (stereo partly shown) [Example 252]
5,11 to 100 nM,CC(NS(=O)(=O)Cc1ccccc1)C(=O)Nc1ccc(C[C@@H]2CC[C@H]([C@H](O)c3cccnc3)N2)cc1 (stereo partly shown) [Example 258]
